Experimental data taken from patent US5610171A, “Inhibition of metastasis in patients having cancer with pyridyloxazole-2-ones” (Merrell Pharmaceuticals Inc., priority 1995, dated 1997).
Where two headings read alike, the source gives them in different places.

What was measured:
B16F1 cells = assay: Experimental lung metastasis assay (B16F1 cells treated in culture, then injected intravenously into C57BL/6 mice); format: in vivo, murine (C57BL/6 mice); conditions: for % Control (number of nodules) / Number of nodules per set of lungs, Mean +/- SE: 24 hours; for IC50: cells exposed to drugs for 24 hours, nodules counted three weeks later, read-out: B16 Metastasis IC50
Protocol: Experimental Metastasis Assay
Sub-confluent B16F1 cells were harvested by washing with HBSS followed by trypsinization for 1 minute. The cells were sedimented by centrifugation (250 g, 5 minutes) and washed twice with HBSS. Viable cells were counted after dilution with trypan blue. A single-cell suspension of 10^5 cells in 0.2 ml HBSS was injected intravenously into 16-18 C57BL/6 mice via the tail vein. Three weeks later, the number of metastatic foci in the lung were counted.

cytosolic PKC [1] = assay: Inhibition of B16F1 cytosolic PKC activity; format: biochemical, murine; conditions: B16F1 cytosol fraction
Protocol: (§1) Protein Kinase C Preparation
(§2) Cytostolic and membrane-associated PKC was prepared as described in Thomas, T. P., Gopalakrishna, R. and Anderson, W. B. Hormone- and tumor promoter-induced activation of membrane association of protein kinase C in intact cells, Methodsin Enzymology, 141: 399-411, 1987. Sub-confluent B16F1 cultures (4×10^7 cells total) were washed twice with phosphate buffered saline (PBS), pH 7.2 and then twice with buffer A (20 mM Tris, pH 7.5, 2 mM EDTA, 0.5 mM EGTA, […], 2 mM phenylmethylsulfonyl fluoride (PMSF), and 2 μg/ml leupeptin). Cells were scraped from the plates in buffer A, homogenized (40 strokes) and sedimented by centrifugation for 1 hour at 100,000 g. The cytosol was stored on ice while the particulate fraction was washed with buffer B (20 mM Tris, pH 7.2, 2 mM EDTA, 0.5 mM EGTA, and 2 mM (PMSF). The membranes were resuspended with buffer B and homogenized with 10 strokes. Nonidet P-40 (1% final concentration) was added and the mixture was incubated for 30 minutes at 4° C. in a rotating mixer. Nonsolubilized material was removed by centrifugation for 10 minutes at 1400 g. Cytostolic and membrane-bound PKC was partially purified by chromatography over 1 ml columns of DE-52 (Whatman) equilibrated with buffer B. The enzyme was applied to the column and washed with 2×3 ml buffer B. Elution of PKC was then effected by the addition of 2 ml buffer B containing 100 mM NaCl.
(§3) PKC was quantitated as described in Thomas et al., ibid. The assay contained 20 mM Tris (pH 7.5), 0.75 mM CaCl, 10 mM magnesium acetate, […] histone III-S, 0.25 μg/ml leupeptin, 100 μM [gamma-^32 p]-ATP (120 cpm/pmol), 0.96 μg/ml phosphatidylserine, and 0.0064 μg/ml 1,2-diolein in a total assay volume of 250 μl. Blanks contained no calcium or phospholipids. Incubation was for 5 minutes at 30° C. at which point the reaction was terminated by the addition of 1 ml 25% trichloroacetic acid (TCA). Samples were applied to Whatman GF/B filters, the tube rinsed twice with 5% TCA and the filter then washed 5 times with 5% TCA.
^a Subconfluent B16F1 cells were harvested and cytosol and membrane
fractions prepared as described in Materials and Methods. PKC activity wa
then measured in the presence of the drugs listed.

cytosolic PKC [2] = assay: PKC activity in cytosol of pretreated B16F1 cells; format: cell-based, murine; conditions: 24 hours
Protocol: as §1, §2
as §3, with “Samples were applied to Whatman GF/B filters, the tube rinsed twice with 5% TCA and the filter then washed 5 times with 5% TCA.” left out
then prepared and its activity was measured as described in […]

fibrinogen = assay: Adhesion of B16F1 cells to fibrinogen; format: cell-based; conditions: 24 hours
Protocol: (§4) Adhesion of B16F1 Cells to Basement Membrane Proteins
(§5) Adhesion proteins (2 μg/well) were coated onto Immulon I Removawells from Dynatech and incubated for 1 hour at 37° C. The wells were then blocked for 1 hour with 400 μl PBS, pH 7.2 containing 1% bovine serum albumin (BSA) at 37° C. Prior to addition of the cell suspension, the blocking solution was aspirated.
(§6) Sub-confluent cells were washed twice with HBSS and removed form flasks by incubation for 10 minutes at 37° C. with PBS (pH 7.2), 2 mM EDTA, and 1% BSA. The cells were washed twice with MEM containing 20 mM HEPES and 0.1% BSA and resuspended in the same medium to give a cell density of […].
(§7) Cells were added to wells in 50 μl (5×10^4 cells) and incubated at 37° C. The wells were aspirated and washed three times with 400 μl PBS (pH 7.2) containing 0.1% BSA. Wells were detached and counted in 5 ml Beckman Ready Protein. Blanks were not coated with protein but were blocked with BSA as described above.

collagen IV = assay: Adhesion of B16F1 cells to collagen IV; format: cell-based; conditions: 24 hours
Protocol: as §4, §5, §6, §7

laminin = assay: Adhesion of B16F1 cells to laminin; format: cell-based; conditions: 24 hours
Protocol: as §4, §5, §6, §7

fibronection = assay: Adhesion of B16F1 cells to fibronectin; format: cell-based; conditions: 24 hours
Protocol: as §4, §5, §6, §7

[3] = tested on: B16F1 murine melanoma cells; assay: Viability of treated B16F1 cells by [3H]-thymidine incorporation; format: cell-based; conditions: 24 hours

`CCCc1[nH]c(=O)oc1-c1ccncc1` [Compound 1, 4-propyl-5(4-pyridinyl)-2(3H)-oxazolone] was tested, and the “% Control (number of nodules)” value (B16F1 cells; 1 μM) was 67%, the “Number of nodules per set of lungs, Mean +/- SE” value (B16F1 cells; 1 μM) was 12 +/- 2.8 nodules per set of lungs and the “% Control (number of nodules)” value (B16F1 cells; 5 μM) was 78%. The “Number of nodules per set of lungs, Mean +/- SE” value (B16F1 cells; 5 μM) was 14 +/- 3.3 nodules per set of lungs, the “% Control (number of nodules)” value (B16F1 cells; 10 μM) was 43% and the “Number of nodules per set of lungs, Mean +/- SE” value (B16F1 cells; 10 μM) was 7.8 +/- 2.1 nodules per set of lungs. The “% Control (number of nodules)” value (B16F1 cells; 20 μM) was 30%, the “Number of nodules per set of lungs, Mean +/- SE” value (B16F1 cells; 20 μM) was 5.4 +/- 1.1 nodules per set of lungs and the “% Control (number of nodules)” value (B16F1 cells; 50 μM) was 12%. For the same compound, the “Number of nodules per set of lungs, Mean +/- SE” value (B16F1 cells; 50 μM) was 2 +/- 0.6 nodules per set of lungs, the “inhibition of lung metastasis” value (B16F1 cells; 24 hours in culture, then intravenous injection into C57BL/6 mice) was 90% and the IC50 (B16F1 cells; Mus musculus, B16-F1, iv) was 6.8 µM. The “number of lung metastases” value (B16F1 cells; cells exposed in vitro, then injected into mice) was “diminished the number of lung metastases”, the IC50 (B16F1 cells) was 7 µM and the “incubation time for 50% of maximum inhibition of metastasis” value (B16F1 cells; time dependence of incubation) was no more than 8 h. For the same compound, the “potency for inhibition of metastasis relative to H-7” value (B16F1 cells; versus H-7) was “more potent than H-7”, the “potency for inhibition of metastasis relative to staurosporine” value (B16F1 cells; versus staurosporine) was “significantly less potent than staurosporine” and the IC50 (cytosolic PKC [1]) was 54 µM. The “PKC Activity, cytosol” value (cytosolic PKC [2]; 5 μM) was 7305 pmol per min per mg protein, the “PKC Activity, cytosol” value (cytosolic PKC [2]; 25 μM) was 2485 pmol per min per mg protein and the “PKC Activity, cytosol” value (cytosolic PKC [2]; 50 μM) was 3658 pmol per min per mg protein. For the same compound, the adhesion to fibrinogen (fibrinogen) was “most sensitive to inhibition”, the “adhesion to collagen IV” value (collagen IV) was “most sensitive to inhibition” and the adherence to laminin (laminin) was “inhibited minimally or not at all”. The adherence to fibronection (fibronection) was “inhibited minimally or not at all” and the “viability of treated cells ([3H]-thymidine incorporation)” value [3] was “equivalent to untreated cells”.
